Laboratory results taken from US6756037B2, “Polymer conjugates of biologically active agents and extension moieties for facilitating conjugation of biologically active agents to polymeric terminal groups” (Enzon, Inc., priority 2000, dated 2004).

Test system: P388/0 cell lines
Assay: Cytotoxicity assay, growth inhibition of P388/0 cells (Alamar Blue)
Assay type: cell-based
Details: 3 days incubation at 37° C., drug concentration inhibiting growth of cells by 50%
Experimental: Cell Lines and Cytotoxicity Assays. Studies using P388/0 cell lines for IC50 (drug concentration inhibiting growth of cells by 50%) were maintained and conducted using standard procedures. Briefly, for IC50 determination, cells were seeded into the microwell plates at a density of 2×10^3 cells per 50 μL per well. Plates were incubated at 37° C. in a humidified incubator with 5% CO2 for 3 days. Cell growth was measured by the addition of 10 μL/well of Alamar Blue (Alamar Biosciences, Inc., Sacramento, Calif.) and the plates were incubated a further 4 hours at 37° C. The IC50 values for each compound were determined from absorbance versus dilution factor plots. All cell cultures for animal implantation were maintained at 37° C. in a humidified atmosphere of 5% CO2/[…] and subcultured once a week. All cell lines were periodically tested for Mycoplasma and were Mycoplasma free.

Nc1ccn([C@@H]2O[C@H](CO)[C@@H](O)[C@@H]2O)c(=O)n1 [Ara-C, ara-C]
IC50: 10 nM
